Tested on: soluble epoxide hydrolase (sEH)
Test: Fluorescent Assay for Mouse and Human Soluble Epoxide Hydrolase (CMNPC substrate)
Type: biochemical
Source text: Fluorescent Assay for Mouse and Human Soluble Epoxide Hydrolase Recombinant mouse sEH (MsEH) and human sEH (HsEH) were produced in a baculovirus expression system as previously reported. Grant et al., J. Biol. Chem., 268:17628-17633 (1993); Beetham et al., Arch. Biochem. Biophys., 305:197-201 (1993). The expressed proteins were purified from cell lysate by affinity chromatography. Wixtrom et al., Anal. Biochem., 169:71-80 (1988). Protein concentration was quantified using the Pierce BCA assay using bovine serum albumin as the calibrating standard. The preparations were at least 97% pure as judged by SDS-PAGE and scanning densitometry. They contained no detectable esterase or glutathione transferase activity which can interfere with the assay. The assay was also evaluated with similar results in crude cell lysates or homogenate of tissues. The IC50s for each inhibitor were according to the following procedure: [drawing 218] […] Jones P. D. et. al.; Analytical Biochemistry 2005; 343: pp. 66-75) Bis/Tris HCl 25 mM pH 7.0 containing 0.1 mg/mL of BSA (buffer […] at 0.25 mM in DMSO. Mother solution of enzyme in buffer A (Mouse sEH at 6 μg/mL and Human sEH at 5 μg/mL). Inhibitor dissolved in DMSO at the appropriate concentration. In a black 96 well plate, fill all the wells with 150 μL of buffer A. Add 2 μL of DMSO in well A2 and A3, and then add 2 μL of inhibitor solution in A1 and A4 through A12. Add 150 μL of buffer A in row A, then mix several time and transfer 150 μL to row B. Repeat this operation up to row H. The 150 μL removed from row H is discarded. Add 20 μL of buffer A in column 1 and 2, then add 20 μL of enzyme solution to column 3 to 12. Incubate the plate for 5 minutes in the plate reader at 30° C. During incubation prepare the working solution of substrate by mixing 3.68 mL of buffer A (4×0.920 mL) with 266 μL (2×133 μL) of substrate solution). At t=0, add 30 μL of working substrate solution with multi-channel pipette labeled “Briggs 303” and start the reading ([S]final: 5 μM). Read with ex: 330 nm (20 nm) and em: 465 nm (20 nm) every 30 second for 10 minutes. The velocities are used to analyze and calculate the IC50s. Tables 4-6 show the activity of compounds when tested with the assay at 50, 500, 5000, 50000, and 500000 nM.

| % Inhibition (Concentration 5000 nM) [%] | Structure (SMILES) | other results |
| --- | --- | --- |
| 87 | O=C(CC12CC3CC(CC(C3)C1)C2)C(=O)NCCc1ccc(OCc2ccccc2)cc1 [Compound 24] | – |
| 99 | O=C(Nc1ccc(OCc2ccccc2)cc1)C(O)CCC12CC3CC(CC(C3)C1)C2 (stereo not shown) [Compound 143, N-(4-(Benzyloxy)phenyl)-4-adamantan-1-yl-2-hydroxybutanamide] | – |
| 99 | O=C(Nc1cccc(OCc2ccccc2)c1)C(O)c1ccc(C(F)(F)F)cc1 (stereo not shown) [Compound 105, N-(3-Benzyloxy-phenyl)-2-hydroxy-2-(4-trifluoromethyl-phenyl)-acetamide] | – |
| 83 | O=C(NCc1ccc(OCc2ccccc2)cc1)C(O)C12CC3CC(CC(C3)C1)C2 (stereo not shown) [Compound 134, N-(4-(Benzyloxy)benzyl)-2-adamantan-1-yl-2-hydroxyacetamide] | – |
| 87 | O=C(NC12CC3CC(CC(C3)C1)C2)C(O)c1cccc(OCc2ccccc2)c1 (stereo not shown) [Compound 103, N-Adamantan-1-yl-2-(3-benzyloxy-phenyl)-2-hydroxy-acetamide] | – |
| – | Cc1ccc(S(=O)(=O)N2CCC(NC(=O)C(O)Cc3ccc(C(F)(F)F)cc3)CC2)cc1 (stereo not shown) [Compound 142, 2-Hydroxy-N-(1-tosylpiperidin-4-yl)-3-(4-(trifluoromethyl)phenyl)propanamide] | % Inhibition (Concentration 50000 nM): 84% |
| 91 | O=C(NCC12CC3CC(CC(C3)C1)C2)C(O)c1ccc(C(F)(F)F)cc1 (stereo not shown) [Compound 121, N-Adamantan-1-ylmethyl-2-hydroxy-2-(4-trifluoromethyl-phenyl)-acetamide] | – |
| 89 | O=C(O)CCCCCCCCCCCNC(=O)C(O)CCc1ccc(C(F)(F)F)cc1 (stereo not shown) [Compound 163, 12-(2-Hydroxy-4-(4-(trifluoromethyl)phenyl)butanamido)dodecanoicacid] | – |
| – | O=C(Nc1cccc(OCc2ccccc2)c1)C(=O)C1CCCCC1 [Compound 12, N-(3-Benzyloxy-phenyl)-2-cyclohexyl-2-oxo-acetamide] | % Inhibition (Concentration 50000 nM): 99% |
| 95 | O=C(Nc1ccc(OCc2ccccc2)cc1)C(O)C12CC3CC(CC(C3)C1)C2 (stereo not shown) [Compound 118, 2-Adamantan-1-yl-N-(4-benzyloxy-phenyl)-2-hydroxy-acetamide] | – |
| – | O=C(NCCc1ccc(OCc2ccccc2)cc1)C(O)Cc1ccc(C(F)(F)F)cc1 (stereo not shown) [Compound 144, N-(4-(Benzyloxy)phenethyl)-2-hydroxy-3-(4-(trifluoromethyl)phenyl)propanamide] | % Inhibition (Concentration 50000 nM): 66% |
| 66 | O=C(Nc1cccc(OCc2ccccc2)c1)C(O)C1CCCCC1 (stereo not shown) [Compound 113, N-(3-Benzyloxy-phenyl)-2-cyclohexyl-2-hydroxy-acetamide] | – |
| – | O=C(Nc1ccc(-n2ccnc2)cc1)C(O)C1CCCCC1 (stereo not shown) [Compound 112, 2-Cyclohexyl-2-hydroxy-N-(4-imidazol-1-yl-phenyl)-acetamide] | % Inhibition (Concentration 50000 nM): 80% |
| – | Cc1ccc(S(=O)(=O)N2CCC(NC(=O)C(O)CCC34CC5CC(CC(C5)C3)C4)CC2)cc1 (stereo not shown) [Compound 138, 4-Adamantan-1-yl-2-hydroxy-N-(1-tosylpiperidin-4-yl)butanamide] | % Inhibition (Concentration 500 nM): 79% |
| – | O=C(CCc1ccc(C(F)(F)F)cc1)C(=O)Nc1ccc(OCc2ccccc2)cc1 [Compound 23] | % Inhibition (Concentration 50000 nM): 93% |
| 71 | O=C(Cc1ccc(OCc2ccccc2)cc1)C(=O)NCC12CC3CC(CC(C3)C1)C2 [Compound 6, N-Adamantan-1-ylmethyl-3-(4-benzyloxy-phenyl)-2-oxo-propionamide] | – |
| 93 | O=C(Nc1ccc(OCc2ccccc2)cc1)C(=O)C12CC3CC(CC(C3)C1)C2 [Compound 20] | – |

| % Inhibition (Concentration 5000 nM) [%] | Structure (SMILES) | other results |
| --- | --- | --- |
| 90 | O=C(NCCc1ccc(Oc2ccccc2)cc1)C(O)CCC12CC3CC(CC(C3)C1)C2 (stereo not shown) [Compound 151, 4-Adamantan-1-yl-2-hydroxy-N-(4-phenoxyphenethyl)butanamide] | – |
| – | O=C(Nc1ccc(-n2ccnc2)cc1)C(=O)C1CCCCC1 [Compound 11, 2-Cyclohexyl-N-(4-imidazol-1-yl-phenyl)-2-oxo-acetamide] | % Inhibition (Concentration 50000 nM): 80% |
| – | O=C(NCCc1ccc(OCc2ccccc2)cc1)C(O)CCC12CC3CC(CC(C3)C1)C2 (stereo not shown) [Compound 129, 4-Adamantan-1-yl-N-[2-(4-benzyloxy-phenyl)-ethyl]-2-hydroxy-butyramide] | % Inhibition (Concentration 50 nM): 70% |
| 87 | O=C(NCCc1ccc(OCc2ccccc2)cc1)C(O)C12CC3CC(CC(C3)C1)C2 (stereo not shown) [Compound 150, N-(4-(Benzyloxy)phenethyl)-2-adamantyl-2-hydroxyacetamide] | – |
| 71 | O=C(Nc1cccc(OCc2ccccc2)c1)C(=O)c1ccc(C(F)(F)F)cc1 [Compound 5, N-(3-Benzyloxy-phenyl)-2-oxo-2-(4-trifluoromethyl-phenyl)-acetamide] | – |
| – | O=C(Nc1ccc(OCc2ccccc2)cc1)C(O)CC1CCCCC1 (stereo not shown) [Compound 132, N-(4-(Benzyloxy)phenyl)-3-cyclohexyl-2-hydroxypropanamide] | % Inhibition (Concentration 50000 nM): 65% |
| 86 | O=C(O)CCCCCCCCCCCNC(=O)C(O)c1ccc(C(F)(F)F)cc1 (stereo not shown) [Compound 159, 12-(2-Hydroxy-2-(4-(trifluoromethyl)phenyl)acetamido)dodecanoic acid] | – |
| 81 | CCCC(=O)N1CCC(NC(=O)C(O)C2CCCCC2)CC1 (stereo not shown) [Compound 116, N-(1-Butyryl-piperidin-4-yl)-2-cyclohexyl-2-hydroxy-acetamide] | – |
| – | COC1CCC(NC(=O)C(O)c2ccc(C(F)(F)F)cc2)CC1 (stereo not shown) [Compound 104, 2-Hydroxy-N-(4-methoxy-cyclohexyl)-2-(4-trifluoromethyl-phenyl)-acetamide] | % Inhibition (Concentration 50000 nM): 79% |
| 78 | O=C(Nc1cccc(OCc2ccccc2)c1)C(O)CC1CCCCC1 (stereo not shown) [Compound 126, N-(3-Benzyloxy-phenyl)-3-cyclohexyl-2-hydroxy-propionamide] | – |
| 98 | O=C(NC1CCN(S(=O)(=O)c2cccc(C(F)(F)F)c2)CC1)C(O)C12CC3CC(CC(C3)C1)C2 (stereo not shown) [Compound 123, 2-Adamantan-1-yl-2-hydroxy-N-[1-(3-trifluoromethyl-benzenesulfonyl)-piperidin-4-yl]-acetamide] | – |
| – | COC1CCC(NC(=O)C(=O)c2ccc(C(F)(F)F)cc2)CC1 (stereo not shown) [Compound 4, N-(4-Methoxy-cyclohexyl)-2-oxo-2-(4-trifluoromethyl-phenyl)-acetamide] | % Inhibition (Concentration 50000 nM): 87% |
| 75 | O=C(Cc1ccc(OCc2ccccc2)cc1)C(=O)NC12CC3CC(CC(C3)C1)C2 [Compound 7, N-Adamantan-1-yl-3-(4-benzyloxy-phenyl)-2-oxo-propionamide] | – |
| 81 | O=C(O)c1ccc(Oc2ccc(CCNC(=O)C(O)CCC34CC5CC(CC(C5)C3)C4)cc2)cc1 (stereo not shown) [Compound 154, 4-(4-(2-(4-Adamantan-1-yl-2-hydroxybutanamido)ethyl)phenoxy)benzoic acid] | – |
| – | O=C(Nc1cccc(OCCCN2CCOCC2)c1)C(=O)c1ccc(C(F)(F)F)cc1 [Compound 1, N-[3-(3-Morpholin-4-yl-propoxy)-phenyl]-2-oxo-2-(4-trifluoromethyl-phenyl)-acetamide] | % Inhibition (Concentration 500 nM): 65% |
| – | CCCC(=O)N1CCC(NC(=O)C(O)c2ccc(C(F)(F)F)cc2)CC1 (stereo not shown) [Compound 114, N-(1-Butyryl-piperidin-4-yl)-2-hydroxy-2-(4-trifluoromethyl-phenyl)-acetamide] | % Inhibition (Concentration 50000 nM): 74% |
| – | O=C(NCC12CC3CC(CC(C3)C1)C2)C(O)Cc1ccc(OCc2ccccc2)cc1 (stereo not shown) [Compound 106, N-Adamantan-1-ylmethyl-3-(4-benzyloxy-phenyl)-2-hydroxy-propionamide] | % Inhibition (Concentration 500 nM): 82% |
